Measurements published in the NIST ThermoML archive (doi:10.1007/s10765-006-0045-2).
Where “and” joins values, the source holds several entries; their conditions need not be identical. Equal values may be shown once.

Assays:
[1] = 101.33 kPa, Crystal; for thermal diffusivity: laser flash method
[2] = molar heat capacity at constant pressure; conditions: 101.33 kPa, Resistive pulse heating

[Hf] [hafnium]
[1]
Conditions | thermal diffusivity
285 K | 1.36e-05 m2/s
293 K | 1.38e-05 m2/s
321 K | 1.32e-05 m2/s
326 K | 1.31e-05 m2/s
375 K | 1.24e-05 m2/s
386 K | 1.22e-05 m2/s
423 K | 1.19e-05 m2/s
433 K | 1.17e-05 m2/s
459 K | 1.15e-05 m2/s
492 K | 1.12e-05 m2/s
521 K | 1.08e-05 m2/s
530 K | 1.08e-05 m2/s
568 K | 1.05e-05 m2/s
579 K | 1.06e-05 m2/s
615 K | 1.02e-05 m2/s
618 K | 1.04e-05 m2/s
664 K | 1e-05 m2/s and 1.02e-05 m2/s
714 K | 9.91e-06 m2/s
715 K | 9.92e-06 m2/s
760 K | 9.79e-06 m2/s
767 K | 9.72e-06 m2/s
817 K | 9.57e-06 m2/s
825 K | 9.67e-06 m2/s
862 K | 9.46e-06 m2/s
874 K | 9.59e-06 m2/s
914 K | 9.36e-06 m2/s
919 K | 9.54e-06 m2/s
962 K | 9.32e-06 m2/s
965 K | 9.54e-06 m2/s
1012 K | 9.29e-06 m2/s
1017 K | 9.54e-06 m2/s
1065 K | 9.26e-06 m2/s and 9.53e-06 m2/s
1113 K | 9.27e-06 m2/s
1118 K | 9.59e-06 m2/s
1162 K | 9.4e-06 m2/s
1174 K | 9.6e-06 m2/s
1215 K | 9.45e-06 m2/s
1222 K | 9.65e-06 m2/s
1262 K | 9.43e-06 m2/s
1277 K | 9.81e-06 m2/s
1314 K | 9.5e-06 m2/s
1332 K | 9.85e-06 m2/s
1362 K | 9.7e-06 m2/s
1370 K | 1e-05 m2/s
1417 K | 9.96e-06 m2/s
1430 K | 1.02e-05 m2/s
1463 K | 1e-05 m2/s
1472 K | 1.05e-05 m2/s

Conditions | mass density | molar heat capacity at constant pressure
[1], 298.1 K, mass over volume | 13222 kg/m3 [middle of 5 runs] | –
[2], 294 K, Crystal 2 | – | 25.61 J/K/mol and 25.77 J/K/mol
[2], 321 K, Crystal 2 | – | 25.86 J/K/mol and 26.01 J/K/mol
[2], 372 K, Crystal 2 | – | 26.33 J/K/mol and 26.38 J/K/mol
[2], 421 K, Crystal 2 | – | 26.77 J/K/mol and 26.7 J/K/mol
[2], 471 K, Crystal 2 | – | 27.22 J/K/mol and 27.1 J/K/mol
[2], 522 K, Crystal 2 | – | 27.67 J/K/mol and 27.49 J/K/mol
[2], 571 K, Crystal 2 | – | 28.09 J/K/mol and 27.88 J/K/mol
[2], 622 K, Crystal 2 | – | 28.52 J/K/mol and 28.29 J/K/mol
[2], 671 K, Crystal 2 | – | 28.93 J/K/mol and 28.67 J/K/mol
[2], 721 K, Crystal 2 | – | 29.36 J/K/mol and 29.04 J/K/mol
[2], 771 K, Crystal 2 | – | 29.77 J/K/mol and 29.47 J/K/mol
[2], 821 K, Crystal 2 | – | 30.17 J/K/mol and 29.95 J/K/mol
[2], 871 K, Crystal 2 | – | 30.56 J/K/mol and 30.4 J/K/mol
[2], 921 K, Crystal 2 | – | 30.95 J/K/mol and 30.84 J/K/mol
[2], 971 K, Crystal 2 | – | 31.34 J/K/mol and 31.25 J/K/mol
[2], 1021 K, Crystal 2 | – | 31.72 J/K/mol and 31.7 J/K/mol
[2], 1071 K, Crystal 2 | – | 32.08 J/K/mol and 32.11 J/K/mol
[2], 1121 K, Crystal 2 | – | 32.45 J/K/mol and 32.49 J/K/mol
[2], 1171 K, Crystal 2 | – | 32.84 J/K/mol and 32.93 J/K/mol
[2], 1221 K, Crystal 2 | – | 33.2 J/K/mol and 33.34 J/K/mol
[2], 1271 K, Crystal 2 | – | 33.54 J/K/mol and 33.73 J/K/mol
[2], 1321 K, Crystal 2 | – | 33.88 J/K/mol and 34.13 J/K/mol
[2], 1371 K, Crystal 2 | – | 34.2 J/K/mol and 34.52 J/K/mol
[2], 1421 K, Crystal 2 | – | 34.52 J/K/mol and 34.91 J/K/mol
[2], 1471 K, Crystal 2 | – | 34.84 J/K/mol and 35.25 J/K/mol
[2], 1521 K, Crystal 2 | – | 35.15 J/K/mol and 35.68 J/K/mol
[2], 1571 K, Crystal 2 | – | 35.45 J/K/mol and 36.06 J/K/mol
[2], 1621 K, Crystal 2 | – | 35.73 J/K/mol and 36.38 J/K/mol
[2], 1671 K, Crystal 2 | – | 36.02 J/K/mol and 36.7 J/K/mol
[2], 1721 K, Crystal 2 | – | 36.31 J/K/mol and 37.13 J/K/mol
[2], 1771 K, Crystal 2 | – | 36.57 J/K/mol and 37.48 J/K/mol
[2], 1821 K, Crystal 2 | – | 36.84 J/K/mol and 37.88 J/K/mol
[2], 1871 K, Crystal 2 | – | 37.09 J/K/mol and 38.29 J/K/mol
[2], 1921 K, Crystal 2 | – | 37.34 J/K/mol and 38.64 J/K/mol
[2], 1971 K, Crystal 2 | – | 37.59 J/K/mol and 40.2 J/K/mol
[2], 1983 K, Crystal 2 | – | 39.18 J/K/mol
[2], 2121 K, Crystal 1 | – | 34.13 J/K/mol and 34.29 J/K/mol
[2], 2171 K, Crystal 1 | – | 34.18 J/K/mol and 34.29 J/K/mol
[2], 2222 K, Crystal 1 | – | 34.23 J/K/mol and 34.29 J/K/mol
[2], 2272 K, Crystal 1 | – | 34.29 J/K/mol
[2], 2321 K, Crystal 1 | – | 34.41 J/K/mol
[2], 2336 K, Crystal 1 | – | 34.5 J/K/mol
